The target of the experiment is T1, H723R-pendrin (Homo sapiens, UniProt O43511, H723R).
T1 construct: expressed in transfected cells; host or cells: PANC-1
T1 sequence (O43511 1-780 H723R): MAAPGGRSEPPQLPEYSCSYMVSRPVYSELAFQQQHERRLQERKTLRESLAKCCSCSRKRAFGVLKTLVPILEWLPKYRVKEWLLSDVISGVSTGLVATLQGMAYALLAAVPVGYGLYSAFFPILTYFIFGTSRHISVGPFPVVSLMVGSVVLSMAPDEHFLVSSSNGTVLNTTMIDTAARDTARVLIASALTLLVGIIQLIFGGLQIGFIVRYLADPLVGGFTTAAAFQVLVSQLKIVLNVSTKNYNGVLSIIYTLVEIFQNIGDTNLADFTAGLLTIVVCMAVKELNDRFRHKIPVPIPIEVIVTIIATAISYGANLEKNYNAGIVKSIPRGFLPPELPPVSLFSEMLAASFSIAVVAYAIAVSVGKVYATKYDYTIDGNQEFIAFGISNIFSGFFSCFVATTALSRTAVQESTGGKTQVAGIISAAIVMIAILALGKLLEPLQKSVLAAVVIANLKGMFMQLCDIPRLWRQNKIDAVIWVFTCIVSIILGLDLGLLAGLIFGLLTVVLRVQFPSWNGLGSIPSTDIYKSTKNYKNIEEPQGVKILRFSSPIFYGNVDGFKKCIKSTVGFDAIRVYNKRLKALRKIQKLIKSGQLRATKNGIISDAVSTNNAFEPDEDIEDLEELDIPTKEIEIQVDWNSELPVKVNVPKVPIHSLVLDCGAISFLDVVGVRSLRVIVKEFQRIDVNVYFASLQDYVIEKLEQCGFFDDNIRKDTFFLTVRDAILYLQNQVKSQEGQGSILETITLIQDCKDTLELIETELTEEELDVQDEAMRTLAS
Description: YFP fluorescence quenching assay (Cl−/I− exchange activity of pendrin). Type of experiment: cell-based. The note with it: PANC-1 cells stably expressing human H723R-pendrin and YFP-F46L/H148Q/I152L; compound incubation 20-24 hours; iodide influx. From the text: Halide sensor YFP F46L/H148Q/I152L is quenched by halide ion like Iodide. When such YFP is expressed in a cell, it expresses in the cytoplasm.
To measure H723R-PDS activity, PANC-1 cells were stably transfected with halide sensors YFP-F46L/H148Q/I152L and H723R-PDS which has problems with membrane trafficking due to misfolding.
If the cell-treated drug is a corrector for H723R-PDS, H723R-PDS will translocate normally to the plasma membrane.
At this time, when treated with a high-concentration iodide solution outside the cell, iodide enters the cell due to the Cl−/I− exchange activity of pendrin, and the fluorescence of the halide sensor YFP decreases.
PANC-1 cells were cultured in Dulbecco's Modified Eagle's Medium with 10% fetal bovine serum, 2 mM glutamine, 100 units/ml penicillin and 100 µg/ml streptomycin. For high-throughput screening, PANC-1 cells were stably transfected with human H723R-pendrin and halide sensor YFP-F46L/H148Q/I152L.
PANC-1 cells expressing human H723R-pendrin and YFP-F46L/H148Q/I152L were plated in 96-well microplates at a density of 2×10^4 cells per well and grown for 20-24 hours at 37° C. (90% humidity 5% CO2). Then these cells were treated with 50 μl growth medium containing test compounds and incubated for 20-24 hours. For YFP quenching assay, each well of the 96-well plate was washed 2 times with 200 μl of PBS, and it was filled with 50 μl of HEPES-buffered solution (140 mM NaCl, 5 mM KCl, 1 mM MgCl2, 1 mM CaCl2, 10 mM D-glucose, 10 mM HEPES; pH 7.4 with NaOH). After 10 minutes of incubation at 37° C., the 96-well plate was moved on the FLUOstar Omega Microplate Reader (BMG Labtech, Ortenberg, Germany) for a fluorescence assay. Each well was assayed individually for H723R-pendrin mediated I^− influx by recording fluorescence (495±15 nm excitation, 520±20 nm emission) every 400 ms for 1 second (baseline). Then, 50 μL of NaI-substituted HEPES-buffered solution (NaI replacing NaCl) was added using a liquid injector at 1 second and YFP fluorescence was recorded every 400 ms for 10 seconds. The initial iodide influx rate was determined from the initial slope of fluorescence by nonlinear regression, after the infusion of iodide.
It is indicated as EC50 with the following key: A=EC50 less than 5 uM; B=EC50 greater than 5 uM, but less than 10 uM; C=EC50 greater than 10 uM.

In general, EC50 refers to the concentration that produces a half-maximal response. A low value points to an effect from little substance. `NC1=C(c2cncc(-c3ccc(O)c(O)c3)c2)C(=O)CN1CCC(F)(F)F` [Compound 95] returned a concentration for a half-maximal effect (EC50) of over 10 µM.

The compound `NC1=C(c2cncc(-c3ccc(O)c(OC4COC4)c3)n2)C(=O)CN1CC1CCC1` [Compound 112] had a 50% effective concentration (EC50) of 5 to 10 µM.

`NC1=C(c2cncc(-c3ccc(O)c(O)c3)c2)C(=O)CN1CC1CCOC1` (stereo not drawn) [Compound 51] had an EC50 of over 10 µM.

`COc1cc(-c2cncc(C3=C(N)N(CC4CCCC4)CC3=O)c2)ccc1O` [Compound 71]: the concentration for a half-maximal effect (EC50) is over 10 µM.

`COc1ccc(-c2cncc(C3=C(N)N(CC4CCOC4)CC3=O)n2)cc1OC` (stereo not drawn) [Compound 36] registered an EC50 of over 10 µM.

`COc1ccc(-c2cncc(C3=C(N)N(c4ccccc4Cl)CC3=O)n2)c(OC)c1` [Compound 20] had an EC50 of 5 to 10 µM.

For `NC1=C(c2nccc(-c3ccc(O)c(O)c3)n2)C(=O)CN1CCC(F)(F)F` [Compound 97], the EC50 was over 10 µM.

`COC1CC(Oc2cc(-c3cncc(C4=C(N)N(CC5CCCC5)CC4=O)n3)ccc2O)C1` (stereo not drawn) [Compound 118]: the EC50 was over 10 µM.

In turn, `COc1ccc(-c2cncc(C3=C(N)N(c4ccccc4OC)CC3=O)n2)cc1OC` [Compound 37] showed an EC50 of over 10 µM.

For the compound `COc1ccc(-c2cccc(C3=C(N)N(CC4CCNC4)CC3=O)n2)cc1OC` (stereo not drawn) [Compound 85], the half-maximal effective concentration (EC50) was over 10 µM.

In the case of `COc1ccc(-c2ccc(C3=C(N)N(c4ccccc4Cl)CC3=O)cn2)cc1OC` [Compound 58], the EC50 was over 10 µM.

On to `NC1=C(c2nccc(-c3ccc(O)c(O)c3)n2)C(=O)CN1c1ccccc1F` [Compound 74], for which the EC50 was over 10 µM.

In turn, `COc1ccc(-c2cncc(C3=C(N)N(CC4CCCC4)CC3=O)n2)cc1OC` [Compound 15] yielded a half-maximal effective concentration (EC50) of 5 to 10 µM.

For the compound `COc1cc(OC)cc(-c2cncc(C3=C(N)N(c4ccccc4Cl)CC3=O)n2)c1` [Compound 22], the half-maximal effective concentration (EC50) was over 10 µM.

For the compound `NC1=C(c2cncc(-c3ccc(O)c(O)c3)n2)C(=O)CN1c1ccccc1O` [Compound 43], the EC50 was over 10 µM.

In turn, `NC1=C(c2cncc(-c3ccc(O)c(O)c3)c2)C(=O)CN1c1ccccc1Cl` [Compound 47] had an EC50 of over 10 µM.

As for `COCOc1ccc(-c2cncc(C3=C(N)N(CC4CCCC4)CC3=O)n2)cc1OC` [Compound 116], the EC50 is under 5 µM.

`NC1=C(c2cncc(-c3ccc(O)c(O)c3)n2)C(=O)CN1c1ccccc1F` [Compound 78] had a 50% effective concentration (EC50) of under 5 µM.

`NC1=C(c2cncc(-c3ccc(O)c(OC4CNC4)c3)n2)C(=O)CN1CC1CCCC1` [Compound 89] registered a concentration for a half-maximal effect (EC50) of over 10 µM.

As to `NC1=C(c2cncc(-c3ccc(O)c(O)c3)n2)C(=O)CN1CC1CC(F)(F)C1` [Compound 104], the EC50 fell in the range of 5 to 10 µM.

Compound `COc1ccc(-c2cccc(C3=C(N)N(CCC(F)(F)F)CC3=O)n2)cc1OC` [Compound 93] had an EC50 of over 10 µM.

Take `COc1ccc(-c2cc(C3=C(N)N(c4ccccc4Cl)CC3=O)ccn2)cc1OC` [Compound 106]: the EC50 was over 10 µM.

`NC1=C(c2cccc(-c3ccc(O)c(O)c3)n2)C(=O)CN1c1ccccc1F` [Compound 92]: the EC50 was 5 to 10 µM.

For `NC1=C(c2cncc(-c3cnc(O)c(O)c3)n2)C(=O)CN1c1ccccc1Cl` [Compound 38], the EC50 is over 10 µM.

For `NC1=C(c2cncc(-c3ccc(O)c(OC4COC4)c3)n2)C(=O)CN1CC1CCCC1` [Compound 70], the EC50 is under 5 µM.

As to `NC1=C(c2cncc(-c3ccc(O)c(O)c3)n2)C(=O)CN1c1ncncc1Cl` [Compound 120], the EC50 was over 10 µM.

For `NC1=C(c2cnc(-c3ccc(O)c(O)c3)cn2)C(=O)CN1c1ccccc1Cl` [Compound 35], the concentration for a half-maximal effect (EC50) was over 10 µM.

On to `COc1cc(-c2cncc(C3=C(N)N(c4ccccc4Cl)CC3=O)n2)cnc1OC` [Compound 21], for which the EC50 is over 10 µM.

Compound `NC1=C(c2cncc(-c3ccc4c(c3)OCO4)n2)C(=O)CN1c1ccccc1Cl` [Compound 10] gave an EC50 of over 10 µM.

`COc1ccc(-c2cncc(C3=C(N)N(CC4CCC4)CC3=O)n2)cc1OC` [Compound 66]: the EC50 was 5 to 10 µM.

In turn, `NC1=C(c2cccc(-c3ccc(O)c(O)c3)n2)C(=O)CN1CC1CCCC1` [Compound 81] came in with an EC50 of under 5 µM.

The compound `COc1ccc(-c2cccc(C3=C(N)N(CC4CCOC4)CC3=O)n2)cc1OC` (stereo not drawn) [Compound 87] gave an EC50 of 5 to 10 µM.

Turning to `COc1ccc(-c2cncc(C3=C(N)N(c4cccc(Cl)c4Cl)CC3=O)n2)cc1OC` [Compound 63], the concentration for a half-maximal effect (EC50) was 5 to 10 µM.

`COc1ccc(-c2cncc(C3=C(N)N(c4ccccc4Cl)CC3=O)c2)cc1OC` [Compound 7] registered a concentration for a half-maximal effect (EC50) of over 10 µM.

For the compound `NC1=C(c2cncc(-c3ccc(O)c(O)c3)c2)C(=O)CN1CC1CCCC1` [Compound 54], the EC50 was over 10 µM.

As to `COc1ccc(-c2cncc(C3=C(N)N(c4ccccc4Cl)CC3=O)n2)cc1O` [Compound 29], the 50% effective concentration (EC50) was over 10 µM.

For the compound `COc1ccc(-c2cncc(C3=C(N)N(C4CCCC4)CC3=O)n2)cc1OC` [Compound 14], the concentration for a half-maximal effect (EC50) lay in the range of 5 to 10 µM.

Take `COc1ccc(-c2cncc(C3=C(N)N(CC4CCCC4)CC3=O)c2)cc1OC` [Compound 50]: the EC50 was over 10 µM.

`CNCCOc1cc(-c2cncc(C3=C(N)N(CC4CCCC4)CC3=O)n2)ccc1O` [Compound 107] gave a 50% effective concentration (EC50) of under 5 µM.

In turn, `NC1=C(c2cncc(-c3ccc(O)c(O)c3)n2)C(=O)CN1c1cccc(Cl)c1Cl` [Compound 64] came in with an EC50 of 5 to 10 µM.

Consider `COc1ccc(-c2nccc(C3=C(N)N(CC4CCCC4)CC3=O)n2)cc1OC` [Compound 77], for which the EC50 was over 10 µM.

As to `NC1=C(c2cncc(-c3ccc(O)c(OC4CC(O)C4)c3)n2)C(=O)CN1CC1CCCC1` (stereo not drawn) [Compound 111], the EC50 is under 5 µM.

The compound `NC1=C(c2ccc(-c3ccc(O)c(O)c3)nc2)C(=O)CN1c1ccccc1Cl` [Compound 59] had a concentration for a half-maximal effect (EC50) of over 10 µM.

The compound `NC1=C(c2ccnc(-c3ccc(O)c(O)c3)n2)C(=O)CN1CC1CCCC1` [Compound 79] came in with a concentration for a half-maximal effect (EC50) of under 5 µM.

Compound `NC1=C(c2cncc(-c3ccc(O)c(O)c3)n2)C(=O)CN1CC1CCOC1` (stereo not drawn) [Compound 41] had a half-maximal effective concentration (EC50) of over 10 µM.

With `COc1cc(-c2ccnc(C3=C(N)N(CC4CCCC4)CC3=O)n2)ccc1O` [Compound 110], the 50% effective concentration (EC50) is under 5 µM.

Consider `NC1=C(c2ccnc(-c3ccc(O)c(O)c3)c2)C(=O)CN1c1ccccc1F` [Compound 101], for which the EC50 is over 10 µM.

Consider `NC1=C(c2cccc(-c3ccc(O)c(O)c3)n2)C(=O)CN1CCC(F)(F)F` [Compound 94], for which the EC50 was over 10 µM.

As to `COc1cc(-c2cncc(C3=C(N)N(CC4CCOC4)CC3=O)c2)ccc1O` (stereo not drawn) [Compound 91], the concentration for a half-maximal effect (EC50) is over 10 µM.

For the compound `NC1=C(c2cncc(-c3ccc(O)c(OCCO)c3)n2)C(=O)CN1CC1CCCC1` [Compound 103], the EC50 was over 10 µM.

Regarding `COc1cc2c(cc1OC)CN(c1cncc(C3=C(N)N(c4ccccc4Cl)CC3=O)n1)CC2` [Compound 16], the concentration for a half-maximal effect (EC50) is over 10 µM.

In turn, `NC1=C(c2cncc(-c3ccc(OC(F)(F)F)c(O)c3)n2)C(=O)CN1c1ccccc1Cl` [Compound 31] came in with a concentration giving a half-maximal response (EC50) of over 10 µM.

The compound `NC1=C(c2nccc(-c3ccc(O)c(O)c3)n2)C(=O)CN1CC1CCCC1` [Compound 65] registered an EC50 of 5 to 10 µM.

As for `COc1ccc(-c2nccc(C3=C(N)N(c4ccccc4Cl)CC3=O)n2)cc1OC` [Compound 98], the EC50 was over 10 µM.

These data come from patent US20250340537A1, “PHARMACEUTICALLY ACTIVE COMPOUNDS, COMPOSITIONS, AND METHODS FOR MODULATING PENDRIN” (ARBORMED Co., Ltd., priority 2022, published 2025).
